Like-named read-outs stand apart in the source and are kept apart here.
Key:
Experiment in all cases: Test A postemergence
Format in all cases: in vivo
[1] = tested on: blackgrass (Alopecurus myosuroides); settings: Alopecurus myosuroides, post-emergence, 240 h; for pest or weed control at 125 g/ha: 125 g ai/ha; for pest or weed control at 500 g/ha: 500 g ai/ha
Outline: (§1)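 Visual injury, scored on a 0–100 scale relative to untreated controls, was recorded about 10 d after application. Treatments were a preemergence soil spray over planted seeds or a postemergence spray on plants at the one- to two-leaf stage, 2 to 10 cm tall, all in loam soil–sand blend in the greenhouse.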

[2] = tested on: barnyardgrass (Echinochloa crus-galli); settings: Echinochloa crus-galli, post-emergence, 240 h; for pest or weed control at 125 g/ha: 125 g ai/ha; for pest or weed control at 500 g/ha: 500 g ai/ha
Outline: as §1

corn (Zea mays) = settings: Zea mays, post-emergence, 240 h; for Corn plant response rating (crop injury, 0 = no effect, 100 = complete kill) at 125 g/ha / plant injury at 125 g/ha: 125 g ai/ha; for Corn plant response rating (crop injury, 0 = no effect, 100 = complete kill) at 125 g/ha: Postemergence, visual injury after approximately 10 d, 0 to 100 scale where 0 is no effect and 100 is complete control; for Corn plant response rating (crop injury, 0 = no effect, 100 = complete kill) at 500 g/ha: visual injury, 0 to 100 scale (0 no effect, 100 complete control); for Corn plant response rating (crop injury, 0 = no effect, 100 = complete kill) at 500 g/ha / plant injury at 125 g/ha: approx. 10 d; for plant injury at 125 g/ha: visual injury on 0 to 100 scale (0 no effect, 100 complete control)
Outline: as §1

Kochia (Kochia scoparia) = settings: Bassia scoparia, post-emergence, 240 h, postemergence; for pest or weed control at 125 g/ha: 125 g ai/ha, visual injury on 0 to 100 scale (0 no effect, 100 complete control); for pest or weed control at 500 g/ha: 500 g ai/ha
Outline: as §1

[3] = tested on: pigweed (Amaranthus retroflexus); settings: Amaranthus retroflexus, post-emergence, 240 h, postemergence; for pest or weed control at 125 g/ha: 125 g ai/ha, visual injury on 0 to 100 scale (0 no effect, 100 complete control); for pest or weed control at 500 g/ha: 500 g ai/ha
Outline: as §1

[4] = tested on: Galium (catchweed bedstraw, Galium aparine); settings: Galium, post-emergence, 240 h, postemergence; for pest or weed control at 125 g/ha: 125 g ai/ha, visual injury on 0 to 100 scale (0 no effect, 100 complete control); for pest or weed control at 500 g/ha: 500 g ai/ha
Outline: as §1

[5] = Postemergence, visual injury after approximately 10 d, 0 to 100 scale where 0 is no effect and 100 is complete control, read-out: Plant response rating, Blackgrass
[6] = postemergence, visual injury, 0 to 100 scale (0 no effect, 100 complete control), approx. 10 d, read-out: Plant response rating, Blackgrass
[7] = Postemergence, visual injury after approximately 10 d, 0 to 100 scale where 0 is no effect and 100 is complete control, read-out: Plant response rating, Barnyardgrass
[8] = postemergence, visual injury, 0 to 100 scale (0 no effect, 100 complete control), approx. 10 d, read-out: Plant response rating, Barnyardgrass
[9] = approx. 10 d, read-out: Kochia plant response rating
[10] = visual injury, 0 to 100 scale (0 no effect, 100 complete control), approx. 10 d, read-out: Plant response rating, Kochia
[11] = approx. 10 d, read-out: Pigweed plant response rating
[12] = approx. 10 d, read-out: Galium plant response rating
[13] = visual injury, 0 to 100 scale (0 no effect, 100 complete control), approx. 10 d, read-out: Plant response rating, Galium
[14] = postemergence, visual injury on 0 to 100 scale (0 no effect, 100 complete control), approx. 10 d, read-out: Blackgrass plant response rating
[15] = postemergence, visual injury on 0 to 100 scale (0 no effect, 100 complete control), approx. 10 d, read-out: Barnyardgrass plant response rating
[16] = postemergence, read-out: Corn plant response rating

| SMILES | pest or weed control at 125 g/ha [1, 5] | pest or weed control at 500 g/ha [1, 6] | pest or weed control at 125 g/ha [2, 7] | pest or weed control at 500 g/ha [2, 8] | Corn plant response rating (crop injury, 0 = no effect, 100 = complete kill) at 125 g/ha (corn (Zea mays)) | Corn plant response rating (crop injury, 0 = no effect, 100 = complete kill) at 500 g/ha (corn (Zea mays); 500 g ai/ha, postemergence) | pest or weed control at 125 g/ha (Kochia (Kochia scoparia); [9]) | pest or weed control at 500 g/ha (Kochia (Kochia scoparia); [10]) | pest or weed control at 125 g/ha [3, 11] | pest or weed control at 125 g/ha [4, 12] | pest or weed control at 500 g/ha [4, 13] | pest or weed control at 125 g/ha [1, 14] | pest or weed control at 125 g/ha [2, 15] | plant injury at 125 g/ha (corn (Zea mays); [16]) | further results |
| --- | --- | --- | --- | --- | --- | --- | --- | --- | --- | --- | --- | --- | --- | --- | --- |
| Cc1ccc([C@H]2CNC(=O)[C@@H]2C(=O)Nc2cccc(F)c2F)cc1C [Compound 1034] | 20% | 30% | 90% | 90% | 10% | 50% | 20% | 30% | 0% | 40% | 60% |  |  |  | pest or weed control at 500 g/ha ([3]; visual injury, 0 to 100 scale (0 no effect, 100 complete control), approx. 10 d, read-out: Plant response rating, Pigweed): 0% |
| Cc1ccc([C@H]2CN(C)C(=O)[C@@H]2C(=O)Nc2ccccc2F)cc1C [Compound 1038] | 30% | 50% | 90% | 90% | 60% | 80% | 40% | 80% | 0% | 50% | 70% |  |  |  |  |
| Cc1cc([C@H]2CNC(=O)[C@@H]2C(=O)Nc2ccccc2F)ccc1C(F)(F)F [Compound 1042] |  | 70% |  | 90% |  | 70% | 30% | 60% | 20% | 30% | 50% | 40% | 80% | 60% |  |
| O=C1NC[C@H](c2ccc3c(c2)CCC3)[C@H]1C(=O)Nc1ccccc1F [Compound 1045] |  | 60% |  | 90% |  | 40% | 0% | 0% | 0% | 40% | 50% | 40% | 90% | 20% |  |
| O=C1NC[C@H](c2ccc3c(c2)CCC3)[C@H]1C(=O)Nc1cccc(F)c1F [Compound 1046] |  | 50% |  | 90% |  | 60% | 0% | 0% | 0% | 50% | 50% | 30% | 90% | 20% |  |
| CN1C[C@H](c2cc(F)cc(F)c2)[C@@H](C(=O)Nc2ccncc2F)C1=O [Compound 1095] |  |  |  |  |  |  | 0% |  | 0% | 0% |  | 0% | 0% | 0% | pest or weed control at 500 g/ha ([1]; postemergence, 0 to 100 scale, 0 is no effect, 100 is complete control, read-out: Blackgrass plant response rating): 0%; pest or weed control at 500 g/ha ([2]; postemergence, 0 to 100 scale, 0 is no effect, 100 is complete control, read-out: Barnyardgrass plant response rating): 0%; plant injury at 500 g/ha (corn (Zea mays); 500 g ai/ha, postemergence, 0 to 100 scale, 0 is no effect, 100 is complete control, read-out: Corn plant response rating): 0%; pest or weed control at 500 g/ha (Kochia (Kochia scoparia); 0 to 100 scale, 0 is no effect, 100 is complete control, read-out: Kochia plant response rating): 0%; pest or weed control at 500 g/ha ([3]; 0 to 100 scale, 0 is no effect, 100 is complete control, read-out: Pigweed plant response rating): 0%; pest or weed control at 500 g/ha ([4]; 0 to 100 scale, 0 is no effect, 100 is complete control, read-out: Galium plant response rating): 0% |
